Experimental data: the kinase profiling compilation of Christmann-Franck et al. (2016)

Assays:
Experiment in all cases: Caliper, Mobility shift assay off-chip
[1] = system: ABL1 (human), P00519 [Q252H]
ABL2 (human) = ABL2 (human) (UniProt P42684)
AKT1 (human) = AKT1 (human) (UniProt P31749)
AKT2 (human) = AKT2 (human) (UniProt P31751)
AKT3 (human) = AKT3 (human) (UniProt Q9Y243)
AURKB (human) = AURKB (human) (UniProt Q96GD4)
BMX (human) = BMX (human) (UniProt P51813)
CAMK2D (human) = CAMK2D (human) (UniProt Q13557)
CAMK2G (human) = CAMK2G (human) (UniProt Q13555)
CDK2 (human) = CDK2 (human) (UniProt P24941)
EGFR (human) = EGFR (human) (UniProt P00533)
FER (human) = FER (human) (UniProt P16591)
Sequence of FER (human) (P16591 whole entry, looked up): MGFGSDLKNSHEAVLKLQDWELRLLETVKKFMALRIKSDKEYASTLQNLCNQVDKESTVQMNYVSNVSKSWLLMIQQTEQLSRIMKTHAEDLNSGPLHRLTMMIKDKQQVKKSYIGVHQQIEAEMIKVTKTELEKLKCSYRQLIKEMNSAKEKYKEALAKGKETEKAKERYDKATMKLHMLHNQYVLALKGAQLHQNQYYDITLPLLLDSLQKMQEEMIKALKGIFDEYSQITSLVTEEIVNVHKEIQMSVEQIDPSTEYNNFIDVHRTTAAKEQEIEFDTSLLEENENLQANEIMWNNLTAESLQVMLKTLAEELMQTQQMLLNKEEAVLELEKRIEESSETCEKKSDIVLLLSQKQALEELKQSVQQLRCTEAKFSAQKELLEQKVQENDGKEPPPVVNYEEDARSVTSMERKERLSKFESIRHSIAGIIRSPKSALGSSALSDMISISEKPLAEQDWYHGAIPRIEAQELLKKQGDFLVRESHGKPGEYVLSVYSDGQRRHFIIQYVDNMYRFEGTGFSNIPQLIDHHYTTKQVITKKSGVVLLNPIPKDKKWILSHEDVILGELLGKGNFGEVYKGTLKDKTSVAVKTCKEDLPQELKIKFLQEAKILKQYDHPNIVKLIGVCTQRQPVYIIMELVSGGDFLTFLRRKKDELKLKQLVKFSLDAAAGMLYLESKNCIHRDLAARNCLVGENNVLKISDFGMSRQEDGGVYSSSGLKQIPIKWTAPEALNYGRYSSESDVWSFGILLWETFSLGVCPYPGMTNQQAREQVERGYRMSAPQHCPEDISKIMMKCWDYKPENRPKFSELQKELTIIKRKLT

[2] = system: FLT3 (human), P36888 [D835Y]
IKBKB (human) = IKBKB (human) (UniProt O14920)
IRAK4 (human) = IRAK4 (human) (UniProt Q9NWZ3)
LYN (human) = LYN (human) (UniProt P07948)
MAPK12 (human) = MAPK12 (human) (UniProt P53778)
MAPKAPK2 (human) = MAPKAPK2 (human) (UniProt P49137)
MAPKAPK3 (human) = MAPKAPK3 (human) (UniProt Q16644)
NEK2 (human) = NEK2 (human) (UniProt P51955)
PAK2 (human) = PAK2 (human) (UniProt Q13177)
PIM1 (human) = PIM1 (human) (UniProt P11309)
PRKCA (human) = PRKCA (human) (UniProt P17252)
PRKCB1 (human) = PRKCB1 (human) (UniProt P05771)
Sequence of PRKCB1 (human) (P05771 whole entry, looked up): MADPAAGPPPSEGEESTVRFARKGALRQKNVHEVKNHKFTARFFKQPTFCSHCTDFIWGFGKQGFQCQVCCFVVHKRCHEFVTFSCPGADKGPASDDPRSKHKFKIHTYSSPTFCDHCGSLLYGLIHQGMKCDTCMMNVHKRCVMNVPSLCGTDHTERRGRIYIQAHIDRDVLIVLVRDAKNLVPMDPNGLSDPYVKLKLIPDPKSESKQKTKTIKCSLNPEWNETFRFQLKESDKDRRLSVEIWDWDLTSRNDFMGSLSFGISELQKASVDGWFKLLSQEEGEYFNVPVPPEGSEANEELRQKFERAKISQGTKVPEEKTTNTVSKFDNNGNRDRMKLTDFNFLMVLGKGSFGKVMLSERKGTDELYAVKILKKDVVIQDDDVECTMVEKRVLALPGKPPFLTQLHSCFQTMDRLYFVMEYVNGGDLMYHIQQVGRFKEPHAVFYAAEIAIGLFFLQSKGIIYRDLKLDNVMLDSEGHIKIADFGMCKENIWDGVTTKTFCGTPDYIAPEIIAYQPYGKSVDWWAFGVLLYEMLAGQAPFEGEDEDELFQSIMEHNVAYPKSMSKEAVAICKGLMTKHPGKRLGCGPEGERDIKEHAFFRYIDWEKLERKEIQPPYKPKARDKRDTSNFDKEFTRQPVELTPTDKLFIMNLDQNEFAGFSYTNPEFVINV

PRKCB2 (human) = PRKCB2 (human) (UniProt P05771)
Sequence of PRKCB2 (human) (P05771 whole entry, looked up): as above

PRKCD (human) = PRKCD (human) (UniProt Q05655)
Sequence of PRKCD (human) (Q05655 whole entry, looked up): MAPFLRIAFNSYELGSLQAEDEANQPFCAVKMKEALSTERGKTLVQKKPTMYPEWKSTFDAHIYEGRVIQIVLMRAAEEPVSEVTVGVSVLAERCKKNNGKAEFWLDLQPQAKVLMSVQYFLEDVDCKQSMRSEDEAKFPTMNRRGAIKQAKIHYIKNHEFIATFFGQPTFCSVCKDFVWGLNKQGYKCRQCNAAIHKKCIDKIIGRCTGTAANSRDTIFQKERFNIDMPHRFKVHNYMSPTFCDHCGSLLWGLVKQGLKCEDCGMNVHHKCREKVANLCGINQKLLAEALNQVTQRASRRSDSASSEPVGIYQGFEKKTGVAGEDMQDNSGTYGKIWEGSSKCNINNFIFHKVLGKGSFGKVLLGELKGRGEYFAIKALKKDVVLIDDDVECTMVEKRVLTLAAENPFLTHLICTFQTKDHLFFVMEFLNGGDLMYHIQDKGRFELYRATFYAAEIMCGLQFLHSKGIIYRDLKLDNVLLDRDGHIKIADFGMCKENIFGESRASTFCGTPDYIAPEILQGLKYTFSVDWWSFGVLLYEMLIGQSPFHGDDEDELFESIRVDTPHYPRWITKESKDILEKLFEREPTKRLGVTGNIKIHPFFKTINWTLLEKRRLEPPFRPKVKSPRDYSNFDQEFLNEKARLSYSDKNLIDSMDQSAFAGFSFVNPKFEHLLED

PRKCE (human) = PRKCE (human) (UniProt Q02156)
PRKD3 (human) = PRKD3 (human) (UniProt O94806)
Sequence of PRKD3 (human) (O94806 whole entry, looked up): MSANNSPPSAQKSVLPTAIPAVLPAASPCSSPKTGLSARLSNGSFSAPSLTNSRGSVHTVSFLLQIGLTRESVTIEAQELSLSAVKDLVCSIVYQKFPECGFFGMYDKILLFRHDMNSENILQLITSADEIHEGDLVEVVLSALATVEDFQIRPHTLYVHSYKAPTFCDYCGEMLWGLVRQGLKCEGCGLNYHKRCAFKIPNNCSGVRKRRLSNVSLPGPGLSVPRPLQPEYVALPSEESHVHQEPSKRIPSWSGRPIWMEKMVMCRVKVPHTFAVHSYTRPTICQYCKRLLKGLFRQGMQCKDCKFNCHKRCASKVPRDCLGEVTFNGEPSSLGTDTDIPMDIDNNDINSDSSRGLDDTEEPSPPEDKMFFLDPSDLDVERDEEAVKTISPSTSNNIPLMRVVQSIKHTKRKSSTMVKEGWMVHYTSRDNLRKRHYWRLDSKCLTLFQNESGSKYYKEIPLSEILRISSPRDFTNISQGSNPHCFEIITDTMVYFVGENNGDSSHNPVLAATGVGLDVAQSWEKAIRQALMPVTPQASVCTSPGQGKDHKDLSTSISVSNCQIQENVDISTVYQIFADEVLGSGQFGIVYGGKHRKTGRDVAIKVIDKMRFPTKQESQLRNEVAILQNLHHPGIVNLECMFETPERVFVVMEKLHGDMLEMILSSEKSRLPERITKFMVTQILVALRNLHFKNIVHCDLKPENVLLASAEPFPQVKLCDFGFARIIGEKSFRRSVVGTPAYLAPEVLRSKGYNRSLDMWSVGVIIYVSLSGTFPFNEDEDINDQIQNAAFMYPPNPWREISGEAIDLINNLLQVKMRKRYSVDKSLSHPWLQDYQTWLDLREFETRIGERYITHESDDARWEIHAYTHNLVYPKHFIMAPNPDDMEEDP

RPS6KA1 KD1 KD2 (human) = RPS6KA1 KD1 KD2 (human) (UniProt Q15418)
RPS6KA2 KD1 KD2 (human) = RPS6KA2 KD1 KD2 (human) (UniProt Q15349)
SGK2 (human) = SGK2 (human) (UniProt Q9HBY8)
SRC (human) = SRC (human) (UniProt P12931)
STK3 (human) = STK3 (human) (UniProt Q13188)
SYK (human) = SYK (human) (UniProt P43405)

Sequence of AURKB (human) (Q96GD4 whole entry, looked up): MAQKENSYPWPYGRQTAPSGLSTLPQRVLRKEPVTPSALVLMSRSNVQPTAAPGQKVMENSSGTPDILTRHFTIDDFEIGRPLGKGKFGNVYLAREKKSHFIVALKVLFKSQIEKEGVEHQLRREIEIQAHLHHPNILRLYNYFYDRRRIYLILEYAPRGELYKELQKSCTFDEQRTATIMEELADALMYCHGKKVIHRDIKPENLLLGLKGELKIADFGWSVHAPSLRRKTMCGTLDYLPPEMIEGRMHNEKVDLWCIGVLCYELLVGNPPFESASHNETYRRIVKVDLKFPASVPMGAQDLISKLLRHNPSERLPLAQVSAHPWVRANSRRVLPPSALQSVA
Sequence of AKT2 (human) (P31751 whole entry, looked up): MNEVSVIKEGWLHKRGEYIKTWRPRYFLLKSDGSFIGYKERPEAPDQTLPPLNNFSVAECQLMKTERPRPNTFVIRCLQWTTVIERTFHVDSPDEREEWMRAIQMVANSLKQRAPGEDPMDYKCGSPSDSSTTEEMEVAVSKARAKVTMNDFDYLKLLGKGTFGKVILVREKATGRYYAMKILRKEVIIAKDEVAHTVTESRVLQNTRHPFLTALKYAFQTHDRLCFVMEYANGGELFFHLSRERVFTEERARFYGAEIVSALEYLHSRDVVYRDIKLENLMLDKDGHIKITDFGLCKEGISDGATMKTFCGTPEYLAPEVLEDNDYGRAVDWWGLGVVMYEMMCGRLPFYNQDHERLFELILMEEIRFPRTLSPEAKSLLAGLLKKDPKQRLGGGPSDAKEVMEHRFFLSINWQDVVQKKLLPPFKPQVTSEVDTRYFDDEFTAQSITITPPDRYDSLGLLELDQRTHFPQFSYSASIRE
Sequence of AKT1 (human) (P31749 whole entry, looked up): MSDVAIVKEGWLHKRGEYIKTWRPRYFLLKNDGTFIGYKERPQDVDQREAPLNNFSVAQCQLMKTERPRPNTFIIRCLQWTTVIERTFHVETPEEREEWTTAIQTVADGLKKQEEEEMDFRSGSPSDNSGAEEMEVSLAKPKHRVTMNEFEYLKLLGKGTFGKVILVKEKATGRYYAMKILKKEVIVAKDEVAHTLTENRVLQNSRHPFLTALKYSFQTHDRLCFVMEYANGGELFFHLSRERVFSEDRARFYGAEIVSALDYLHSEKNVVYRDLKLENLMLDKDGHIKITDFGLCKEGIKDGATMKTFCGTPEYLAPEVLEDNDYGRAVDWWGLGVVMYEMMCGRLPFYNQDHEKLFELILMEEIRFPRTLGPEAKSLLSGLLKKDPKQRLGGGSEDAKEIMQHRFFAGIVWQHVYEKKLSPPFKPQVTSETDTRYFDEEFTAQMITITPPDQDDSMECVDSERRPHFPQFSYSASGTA

Compound: Cn1cc(-c2cnc3ccc4ccc(CS(=O)(=O)NC5CCCCC5)cc4c(=O)c3c2)cn1
- inhibition ([1]; compound 0.01 µM): 2.5%
- inhibition ([1]; compound 0.1 µM): 7.6%
- inhibition (ABL2 (human); compound 0.01 µM): -2.4%
- inhibition (ABL2 (human); compound 0.1 µM): -4.3%
- inhibition (AKT1 (human); compound 0.01 µM): 0.8%
- inhibition (AKT1 (human); compound 0.1 µM): 7.4%
- inhibition (AKT2 (human); compound 0.01 µM): -1.3%
- inhibition (AKT2 (human); compound 0.1 µM): 2%
- inhibition (AKT3 (human); compound 0.01 µM): -2.7%
- inhibition (AKT3 (human); compound 0.1 µM): 5.2%
- inhibition (AURKB (human); compound 0.01 µM): -0.1%
- inhibition (AURKB (human); compound 0.1 µM): 11.7%
- inhibition (BMX (human); compound 0.01 µM): -1%
- inhibition (BMX (human); compound 0.1 µM): -7.1%
- inhibition (CAMK2D (human); compound 0.01 µM): 2.4%
- inhibition (CAMK2D (human); compound 0.1 µM): -6.5%
- inhibition (CAMK2G (human); compound 0.01 µM): 13.5%
- inhibition (CAMK2G (human); compound 0.1 µM): -2.8%
- inhibition (CDK2 (human); compound 0.01 µM): -2.1%
- inhibition (CDK2 (human); compound 0.1 µM): 11.7%
- inhibition (EGFR (human); compound 0.01 µM): -7.2%
- inhibition (EGFR (human); compound 0.1 µM): -1%
- inhibition (FER (human); compound 0.01 µM): -1%
- inhibition (FER (human); compound 0.1 µM): 0.2%
- inhibition ([2]; compound 0.01 µM): -3%
- inhibition ([2]; compound 0.1 µM): 6.8%
- inhibition (IKBKB (human); compound 0.01 µM): 3.8%
- inhibition (IKBKB (human); compound 0.1 µM): -0.4%
- inhibition (IRAK4 (human); compound 0.01 µM): -10%
- inhibition (IRAK4 (human); compound 0.1 µM): 6.7%
- inhibition (LYN (human); compound 0.01 µM): 9.1%
- inhibition (LYN (human); compound 0.1 µM): 3.6%
- inhibition (MAPK12 (human); compound 0.01 µM): 2%
- inhibition (MAPK12 (human); compound 0.1 µM): 5.1%
- inhibition (MAPKAPK2 (human); compound 0.01 µM): -0.8%
- inhibition (MAPKAPK2 (human); compound 0.1 µM): -0.9%
- inhibition (MAPKAPK3 (human); compound 0.01 µM): -8%
- inhibition (MAPKAPK3 (human); compound 0.1 µM): 4.1%
- inhibition (NEK2 (human); compound 0.01 µM): 0.9%
- inhibition (NEK2 (human); compound 0.1 µM): -2.6%
- inhibition (PAK2 (human); compound 0.01 µM): 4.4%
- inhibition (PAK2 (human); compound 0.1 µM): 4.9%
- inhibition (PIM1 (human); compound 0.01 µM): -11.4%
- inhibition (PIM1 (human); compound 0.1 µM): -4.6%
- inhibition (PRKCA (human); compound 0.01 µM): -5.5%
- inhibition (PRKCA (human); compound 0.1 µM): 5.2%
- inhibition (PRKCB1 (human); compound 0.01 µM): -6%
- inhibition (PRKCB1 (human); compound 0.1 µM): 1.4%
- inhibition (PRKCB2 (human); compound 0.01 µM): 1.4%
- inhibition (PRKCB2 (human); compound 0.1 µM): 5.7%
- inhibition (PRKCD (human); compound 0.01 µM): -8.7%
- inhibition (PRKCD (human); compound 0.1 µM): 8.3%
- inhibition (PRKCE (human); compound 0.01 µM): -0.5%
- inhibition (PRKCE (human); compound 0.1 µM): 3.8%
- inhibition (PRKD3 (human); compound 0.01 µM): -2.4%
- inhibition (PRKD3 (human); compound 0.1 µM): 10.4%
- inhibition (RPS6KA1 KD1 KD2 (human); compound 0.01 µM): 1.3%
- inhibition (RPS6KA1 KD1 KD2 (human); compound 0.1 µM): 3.4%
- inhibition (RPS6KA2 KD1 KD2 (human); compound 0.01 µM): 6.7%
- inhibition (RPS6KA2 KD1 KD2 (human); compound 0.1 µM): 10.4%
- inhibition (SGK2 (human); compound 0.01 µM): -1.3%
- inhibition (SGK2 (human); compound 0.1 µM): -0.1%
- inhibition (SRC (human); compound 0.01 µM): 2.2%
- inhibition (SRC (human); compound 0.1 µM): -1.4%
- inhibition (STK3 (human); compound 0.01 µM): 7.9%
- inhibition (STK3 (human); compound 0.1 µM): 17.7%
- inhibition (SYK (human); compound 0.01 µM): 1.3%
- inhibition (SYK (human); compound 0.1 µM): -4.4%
